Results taken from patent US7605272B2, “IGF-1R inhibitor” (Kyowa Hakko Kirin Co., Ltd., priority 2005, dated 2009).
Where a name gives a salt, the structure may show the parent alone. Read-outs that look alike come from different tables or passages of the source.

Tests used:
[1] = test system: NCI-H929; assay: Cytostatic activity on human multiple myeloma cell line NCI-H929 (WST-1); assay type: cell-based; conditions: for inhibition at 10 µM / inhibition at 1 µM: Homo sapiens, NCI-H929, 72 h; for inhibition at 10 µM: read-out: cytostatic rate (%) H929 (10 μmol/L); for inhibition at 1 µM: read-out: cytostatic rate (%) H929 (1 μmol/L)
Summary of the method: (§1)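 Cytostatic rate is 100 minus % growth relative to DMSO-only wells (100%) and blank wells (0%), read by WST-1 absorbance at 450/690 nm after 2 h. Compound at 1 or 10 μmol/L final was applied for 72 h at 37 °C to cells seeded 24 h earlier.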

[2] = test system: KMS-11; assay: Cytostatic activity on human multiple myeloma cell line KMS-11 (WST-1); assay type: cell-based; conditions: for inhibition at 10 µM / inhibition at 1 µM: Homo sapiens, KMS-11, 72 h; for inhibition at 10 µM: read-out: cytostatic rate (%) KMS-11 (10 μmol/L); for inhibition at 1 µM: read-out: cytostatic rate (%) KMS-11 (1 μmol/L)
Summary of the method: as §1

[3] = test system: AsPC-1; assay: Cytostatic activity on human pancreatic cancer cell line AsPC-1 (WST-1); assay type: cell-based; conditions: for inhibition at 10 µM: Homo sapiens, ASPC1, 72 h; for cytostatic rate (%) AsPC-1 (10 μmol/L): 72 hours
Procedure: (§2) The cytostatic rates of the test compound on the human pancreatic cancer cell line AsPC-1 and the human colon cancer cell line Colo205 were determined in the following manner.
(§3) For culturing AsPC-1, RPMI 1640 medium containing 20% fetal bovine serum, 1 mmol/L sodium pyruvate, 10 mmol/L HEPES, 4.5 g/L glucose and penicillin/streptomycin (1:1). The Colo205 cell was cultured using RPMI 1640 medium containing 10% fetal bovine serum, 1 mmol/L sodium pyruvate, 10 mmol/L HEPES, 4.5 g/L glucose and penicillin/streptomycin (1:1) was used. Each 80 μL of the AsPC-1 cell having a concentration of 5×10^4 cells/mL (or the Colo205 having a concentration of 5×10^4 cells/mL) was inoculated to wells of a TC MICROWELL 96F plate (Nalge Nunc International, Catalog No. 167008) and was cultured in a 5% carbon dioxide gas incubator at 37° C. for 24 hours. Each 20 μL of a solution of the test compound in DMSO which was prepared to make the final concentration to 1 μmol/L or 10 μmol/L, was added to each well. Each 20 μL of DMSO was added to the control well and the blank well to a final concentration of 0.1%. After adding the test compound, the cell was incubated in a 5% carbon dioxide gas incubator at 37° C. for 72 hours except for the blank well. After adding 20 μL of WST-1 reagent which was diluted to 50% by RPMI medium to each well, the cells were further incubated at 37° C. for 2 hours. Then, the absorbances at 450 nm (reference wavelength: 690 nm) were determined with a microplate spectrophotometer SPECTRA max 340PC. The cytostatic rate (%) was then determined in the similar manner to the above multiple myeloma cell lines.

[4] = test system: Colo205; assay: Cytostatic activity on human colon cancer cell line Colo205 (WST-1); assay type: cell-based; conditions: for inhibition at 10 µM: Homo sapiens, COLO 205, 72 h; for cytostatic rate (%) Colo205 (10 μmol/L): 72 hours
Procedure: as §2, §3

[5] = target: T1, IGF-1R (Homo sapiens, UniProt P08069); assay: IGF-1R inhibitory activity (kinase reaction, time-resolved fluoroimmunoassay); assay type: biochemical; conditions: test compound 10 μmol/L
T1 construct: purchased Upstate Co. 14-465
Summary of the method: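 Compounds were tested at a single 10 μmol/L concentration. Each was incubated with recombinant IGF-1R (200 μg/L), 10 mmol/L ATP, MgCl2/MnCl2 and Na3VO4 (pH 7.5) on immobilized poly(Glu-Tyr) peptide for 30 min at 24° C. Eu-anti-phosphotyrosine time-resolved fluorescence (340/615 nm) gave relative activity against no-compound and no-enzyme wells, reported as % inhibition.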

[6] = 10 μmol/L, read-out: cytostatic rate (%) AsPC-1 (10 μmol/L)
[7] = 10 μmol/L, read-out: cytostatic rate (%) Colo205 (10 μmol/L)
[8] = IGF-1R active recombinant enzyme
[9] = NCI-H929 cells, test compound 1 μmol/L, WST-1
[10] = KMS-11 cells, test compound 1 μmol/L, WST-1
[11] = AsPC-1 cells, test compound 10 μmol/L, WST-1, read-out: cytostatic rate (%) AsPC-1 (10 μmol/L)
[12] = Colo205 cells, test compound 10 μmol/L, WST-1, read-out: cytostatic rate (%) Colo205 (10 μmol/L)

T1 sequence (P08069 959-1367 limits assumed): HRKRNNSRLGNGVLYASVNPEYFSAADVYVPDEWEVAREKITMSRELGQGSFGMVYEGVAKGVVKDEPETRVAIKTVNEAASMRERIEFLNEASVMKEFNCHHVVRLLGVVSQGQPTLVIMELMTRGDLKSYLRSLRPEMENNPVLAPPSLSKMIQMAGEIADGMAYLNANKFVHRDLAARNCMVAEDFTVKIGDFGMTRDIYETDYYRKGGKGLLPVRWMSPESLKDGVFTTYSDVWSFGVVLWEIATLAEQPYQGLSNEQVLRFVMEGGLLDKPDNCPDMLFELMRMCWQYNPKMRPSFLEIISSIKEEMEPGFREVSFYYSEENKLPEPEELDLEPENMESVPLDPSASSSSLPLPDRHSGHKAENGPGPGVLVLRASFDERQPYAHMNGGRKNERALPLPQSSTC

In the case of `COc1cccc(/C=C/c2n[nH]c3ccccc23)c1NC(=O)c1cccn1C` [Compound 109, (E)-N-{2-[2-(1H-indazol-3-yl)vinyl]-6-methoxyphenyl}-1-methyl-1H-pyrrole-2-carboxamide], the inhibition at 10 µM ([1]; 10 μmol/L, 72 hours) is reported as 116%, the inhibition at 10 µM ([2]; 10 μmol/L, 72 hours) is reported as 117% and the inhibition at 10 µM [3, 6] is reported as 114%. For the same molecule, the inhibition at 10 µM [4, 7] was 123% and the inhibition at 10 µM [5] was 103%.
Molecule `Cn1cccc1C(=O)Nc1ccccc1/C=C/c1n[nH]c2ccccc12` [Compound 29, (E)-N-{2-[2-(1H-indazol-3-yl)vinyl]phenyl}-1-methyl-1H-pyrrole-2-carboxamide] has an inhibition at 10 µM ([1]; 10 μmol/L, 72 hours) of 117%, an inhibition at 10 µM ([2]; 10 μmol/L, 72 hours) of 112% and an inhibition at 10 µM [3, 6] of 66.1%. For the same molecule, the inhibition at 10 µM [4, 7] was 114% and the inhibition at 10 µM [5, 8] was 97.9%.
For `Cc1ccsc1C(=O)Nc1cc(CN2CCN(CCO)CC2)ccc1/C=C/c1n[nH]c2ccccc12` [Compound 239, (E)-N-{5-[4-(2-hydroxyethyl)piperazin-1-ylmethyl]-2-[2-(1H-indazol-3-yl)vinyl]phenyl}-3-methylthiophene-2-carboxamide], the inhibition at 1 µM ([1]; 1 μmol/L, 72 hours) was 115%, the inhibition at 1 µM ([2]; 1 μmol/L, 72 hours) was 152% and the inhibition at 10 µM [3, 6] was 102%. It also gave an inhibition at 10 µM [4, 7] of 121% and an inhibition at 10 µM [5, 8] of 101%.
In the case of `Cc1ccsc1C(=O)Nc1cc(CN2CCNCC2)ccc1/C=C/c1n[nH]c2ccccc12` [Compound 242], the “cytostatic rate (%) H929 (1 μmol/L)” value ([1]; 1 μmol/L, 72 hours) is reported as 111.1%, the “cytostatic rate (%) KMS-11 (1 μmol/L)” value ([2]; 1 μmol/L, 72 hours) is reported as 106.8% and the “cytostatic rate (%) AsPC-1 (10 μmol/L)” value ([3]; 10 μmol/L) is reported as 87.1%. For the same molecule, the “cytostatic rate (%) Colo205 (10 μmol/L)” value ([4]; 10 μmol/L) was 119.7% and the “inhibitory activity (%) at 10 μmol/L” value [5, 8] was 102.1%.
`Cc1ccsc1C(=O)Nc1cc(CN2CCN(CC(C)(C)O)CC2)ccc1/C=C/c1n[nH]c2ccccc12` [Compound 312, (E)-N-{5-[4-(2-hydroxy-2-methylpropyl)piperazin-1-ylmethyl]-2-[2-(1H-indazol-3-yl)vinyl]phenyl}-3-methylthiophene-2-carboxamide] showed an inhibition at 1 µM [1, 9] of 115%, an inhibition at 1 µM [2, 10] of 108% and an inhibition at 10 µM [3, 11] of 101%. For the same molecule, the inhibition at 10 µM [4, 12] was 120% and the inhibition at 10 µM [5, 8] was 105%.
For `Cc1ccsc1C(=O)Nc1cc(C(=O)N2CCOCC2)ccc1/C=C/c1n[nH]c2ccccc12.Cl` [Compound 115, (E)-N-{2-[2-(1H-indazol-3-yl)vinyl]-5-(morpholin-4-ylcarbonyl)phenyl}-3-methylthiophene-2-carboxamide hydrochloride], the “cytostatic rate (%) H929 (10 μmol/L)” value ([1]; 10 μmol/L, 72 hours) was 120.0%, the “cytostatic rate (%) KMS-11 (10 μmol/L)” value ([2]; 10 μmol/L, 72 hours) was 115.5% and the “cytostatic rate (%) AsPC-1 (10 μmol/L)” value ([3]; 10 μmol/L) was 108.7%. The “cytostatic rate (%) Colo205 (10 μmol/L)” value ([4]; 10 μmol/L) was 121.6% and the “inhibitory activity (%) at 10 μmol/L” value [5] was 100.1%.
For `CCN(CC)CCOc1ccc(/C=C/c2n[nH]c3ccccc23)c(NC(=O)c2sccc2C)c1OC` [Compound 263, (E)-N-{3-(2-diethylaminoethoxy)-6-[2-(1H-indazol-3-yl)vinyl]-2-methoxymephenyl}-3-methylthiophene-2-carboxamide], the “cytostatic rate (%) H929 (1 μmol/L)” value ([1]; 1 μmol/L, 72 hours) was 116.0%, the “cytostatic rate (%) KMS-11 (1 μmol/L)” value ([2]; 1 μmol/L, 72 hours) was 126.2% and the “cytostatic rate (%) AsPC-1 (10 μmol/L)” value ([3]; 10 μmol/L) was 103.4%. The “cytostatic rate (%) Colo205 (10 μmol/L)” value ([4]; 10 μmol/L) was 120.5% and the “inhibitory activity (%) at 10 μmol/L” value [5, 8] was 100.9%.
`Nc1cccc2c1C(=O)N(c1ccccc1/C=C/c1n[nH]c3ccccc13)C2=O` [Compound 194, (E)-4-amino-2-{2-[2-(1H-indazol-3-yl)vinyl]phenyl}isoindole-1,3-dione] was tested, and the inhibition at 10 µM ([1]; 10 μmol/L, 72 hours) was 119%, the inhibition at 10 µM ([2]; 10 μmol/L, 72 hours) was 143% and the inhibition at 10 µM [3, 6] was 75.3%. The inhibition at 10 µM [4, 7] was 97.9% and the inhibition at 10 µM [5, 8] was 102%.
`Cc1ccsc1C(=O)Nc1cc(CN2CCN(CCOCCO)CC2)ccc1/C=C/c1n[nH]c2ccccc12` [Compound 318, (E)-N-{5-{4-[2-(2-hydroxyethoxy)ethyl]piperazin-1-ylmethyl}-2-[2-(1H-indazol-3-yl)vinyl]-phenyl}-3-methylthiophene-2-carboxamide] showed an inhibition at 1 µM [1, 9] of 122%, an inhibition at 1 µM [2, 10] of 102% and an inhibition at 10 µM [3, 11] of 103%. The inhibition at 10 µM [4, 12] was 120% and the inhibition at 10 µM [5, 8] was 94.7%.
`Cc1ccsc1C(=O)Nc1ccccc1/C=C/c1n[nH]c2ccccc12` [Compound 41, (E)-N-{2-[2-(1H-indazol-3-yl)vinyl]phenyl}-3-methylthiophene-2-carboxamide] was tested, and the inhibition at 10 µM ([1]; 10 μmol/L, 72 hours) was 121%, the inhibition at 10 µM ([2]; 10 μmol/L, 72 hours) was 109% and the inhibition at 10 µM [3, 6] was 85.5%. For the same molecule, the inhibition at 10 µM [4, 7] was 115% and the inhibition at 10 µM [5, 8] was 98.6%.
`Cc1ccsc1C(=O)Nc1cc(CNCCN2CCOCC2)ccc1/C=C/c1n[nH]c2ccccc12` [Compound 245, (E)-N-{2-[2-(1H-indazol-3-yl)vinyl]-5-[2-(morpholin-4-yl)ethylaminomethyl]phenyl}-3-methylthiophene-2-carboxamide] was tested, and the inhibition at 1 µM ([1]; 1 μmol/L, 72 hours) was 126%, the inhibition at 1 µM ([2]; 1 μmol/L, 72 hours) was 118% and the inhibition at 10 µM [3, 6] was 102%. For the same molecule, the inhibition at 10 µM [4, 7] was 121% and the inhibition at 10 µM [5, 8] was 99.9%.
`Cc1ccsc1C(=O)Nc1cc(N2CCOCC2)ccc1/C=C/c1n[nH]c2ccccc12` [Compound 247, (E)-N-{2-[2-(1H-indazol-3-yl)vinyl]-5-morpholin-4-ylphenyl}-3-methylthiophene-2-carboxamide monohydrochloride] gave an inhibition at 1 µM ([1]; 1 μmol/L, 72 hours) of 127%, an inhibition at 1 µM ([2]; 1 μmol/L, 72 hours) of 133% and an inhibition at 10 µM [3, 6] of 117%. For the same molecule, the inhibition at 10 µM [4, 7] was 123% and the inhibition at 10 µM [5, 8] was 102%.
Molecule `CN(C(=O)c1ccc[nH]1)c1cc(C(=O)N2CCOCC2)ccc1/C=C/c1n[nH]c2ccccc12` [Compound 217, (E)-N-{2-[2-(1H-indazol-3-yl)vinyl]-5-(morpholin-4-ylcarbonyl)phenyl}-N-methylpyrrole-2-carboxamide hydrochloride] has an inhibition at 1 µM ([1]; 1 μmol/L, 72 hours) of 113%, an inhibition at 1 µM ([2]; 1 μmol/L, 72 hours) of 128% and an inhibition at 10 µM [3, 6] of 91.9%. The inhibition at 10 µM [4, 7] was 122% and the inhibition at 10 µM [5, 8] was 96.6%.
